Measurements published in the supplement of paper PMC10307832.

How the values were obtained:
Experiment in all cases: relative viability (nuclei count vs DMSO), 5 days (fraction); higher = more cells survive
[1] = compound: C1=CC2=C(C=C(C(=C2N=C1)O)N=NC3=CC4=C(C=C3)C=C(C=C4)S(=O)(=O)O)S(=O)(=O)O + COc1cc2c(Oc3ccc(NC(=O)C4(C(=O)Nc5ccc(F)cc5)CC4)cc3F)ccnc2cc1OCCCN1CCOCC1 [Foretinib] (partner 0.25 µM)
Outline: (§1)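 Each reported value is a median over duplicate plates. It expresses relative viability: treated-well nuclei count divided by vehicle-well nuclei count. Lung cancer cell lines in 1536-well plates were dosed by pin tool a day after seeding, alone with one drug or with a fixed anchor-drug dose plus five library-drug doses (not always all listed) in √10 steps, and nuclei were counted after 5 days.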

AT-7519 + Pictilisib = compound: O=C(NC1CCNCC1)c1n[nH]cc1NC(=O)c1c(Cl)cccc1Cl [AT-7519] + CS(=O)(=O)N1CCN(Cc2cc3nc(-c4cccc5[nH]ncc45)nc(N4CCOCC4)c3s2)CC1 [Pictilisib] (partner 1 µM)
Outline: as §1

[2] = compound: C1=CC2=C(C=C(C(=C2N=C1)O)N=NC3=CC4=C(C=C3)C=C(C=C4)S(=O)(=O)O)S(=O)(=O)O + C[C@@H](Oc1cc(-c2cnn(C3CCNCC3)c2)cnc1N)c1c(Cl)ccc(F)c1Cl [Crizotinib] (partner 1 µM)
Outline: as §1

[3] = compound: C1=CC2=C(C=C(C(=C2N=C1)O)N=NC3=CC4=C(C=C3)C=C(C=C4)S(=O)(=O)O)S(=O)(=O)O + C[C@]1(O)C[C@@H](c2nc(-c3ccc4ccc(-c5ccccc5)nc4c3)c3c(N)nccn32)C1 [Linsitinib] (partner 1 µM)
Outline: as §1

Row | Cell Line | relative viability ([1]; first compound 0.08 µM) | relative viability ([1]; first compound 0.253 µM) | relative viability ([1]; first compound 0.8 µM) | relative viability ([1]; first compound 2.53 µM) | relative viability ([1]; first compound 8 µM) | relative viability (AT-7519 + Pictilisib; first compound 0.01 µM) | relative viability (AT-7519 + Pictilisib; first compound 0.03162 µM) | relative viability (AT-7519 + Pictilisib; first compound 0.3162 µM) | relative viability (AT-7519 + Pictilisib; first compound 1 µM) | relative viability ([2]; first compound 0.08 µM) | relative viability ([2]; first compound 0.253 µM) | relative viability ([2]; first compound 0.8 µM) | relative viability ([2]; first compound 2.53 µM) | relative viability ([2]; first compound 8 µM) | relative viability ([3]; first compound 0.08 µM) | relative viability ([3]; first compound 0.253 µM) | relative viability ([3]; first compound 0.8 µM) | relative viability ([3]; first compound 2.53 µM) | relative viability ([3]; first compound 8 µM)
1 | NCI-H1650 | 1.34 | 1.17 | 1.38 | 1.01 | 0.448 | 0.701 | 0.548 | 0.295 | 0.177 | 1.05 | 0.894 | 0.962 | 1.15 | 1.01 |  |  |  |  | 
2 | BEN | 0.489 | 0.521 | 0.732 | 0.686 | 0.429 | 0.532 | 0.512 | 0.697 | 0.468 | 1.14 | 0.872 | 0.792 | 0.925 | 0.813 | 1.11 | 0.887 | 0.799 | 0.94 | 0.827
3 | EMC-BAC-2 | 1.07 | 0.987 | 1.04 | 1.07 | 0.842 | 0.56 | 0.524 | 0.506 | 0.538 | 0.777 | 0.751 | 0.704 | 0.806 | 0.757 | 0.912 | 0.821 | 0.825 | 0.823 | 0.8
4 | LU99A | 0.958 | 0.812 | 0.684 | 0.913 | 0.732 | 0.365 | 0.307 | 0.283 | 0.251 | 0.626 | 0.605 | 0.521 | 0.57 | 0.574 | 0.613 | 0.559 | 0.552 | 0.528 | 0.522
5 | ABC-1 | 1.19 | 1.02 | 0.915 | 1.27 | 0.374 | 0.837 | 0.688 | 0.527 | 0.202 | 1.07 | 1.33 | 1.01 | 1.27 | 1.23 | 0.8 | 0.632 | 0.86 | 0.688 | 0.738
6 | NCI-H2170 | 1.05 | 0.925 | 0.958 | 0.799 | 0.954 | 0.305 | 0.29 | 0.234 | 0.255 | 1.38 | 1.1 | 1.15 | 1.23 | 1.2 |  |  |  |  | 
7 | NCI-H1299 | 1.17 | 1.04 | 1.04 | 1.09 | 1.06 | 0.865 | 0.738 | 0.507 | 0.127 | 0.892 | 0.971 | 0.933 | 0.943 | 0.988 | 1.04 | 0.98 | 0.937 | 0.955 | 0.986
8 | EBC-1 | 0.1 | 0.106 | 0.104 | 0.0986 | 0.0948 | 0.393 | 0.31 | 0.288 | 0.139 | 0.231 | 0.197 | 0.197 | 0.183 | 0.162 | 1.04 | 0.878 | 0.796 | 0.945 | 0.915
9 | NCI-H2347 | 1.07 | 1.12 | 0.766 | 1.13 | 0.801 | 0.565 | 0.665 | 0.345 | 0.286 | 0.691 | 0.674 | 0.651 | 0.768 | 0.636 | 1.01 | 0.894 | 0.881 | 1.03 | 1.03
